From patent US10219516B2, “Molecules having pesticidal utility, and intermediates, compositions, and processes, related thereto” (priority 2015, dated 2019)

Columns and labels:
Assay type in all cases: in vivo
[1] = tested on: Yellow Fever Mosquito (Aedes aegypti, AEDSAE); test: Bioassay on Yellow Fever Mosquito (YFM), 96-well plate larval assay; details: Yellow Fever Mosquito, 96-well plate larval assay
Outline: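 Compound stocks at 4000 ppm in DMSO were diluted with 90:10 water/acetone, and 15 μL aliquots were dispensed into six replicate plates. About 1-day-old larvae in liver-powder water were added per well. Plates were covered and held at room temperature for 3 days before each well was scored for mortality.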

[2] = tested on: Cabbage Looper (Trichoplusia ni, TRIPNI); test: Bioassay on Cabbage Looper (CL), 128-well diet tray assay; details: Trichoplusia ni; Cabbage Looper, 128-well diet tray assay; read-out: CL rating
Outline: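 Using eight wells per molecule, artificial diet was dosed at 50 μg/cm^2 with compound in 90:10 acetone-water and dried before one to five second-instar larvae were added per well. Covered vented trays were kept at 25° C. with 14:10 light-dark for five to seven days, then per-well percent mortality was recorded and averaged.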

[3] = tested on: Beet Armyworm (Spodoptera exigua, LAPHEG); test: Bioassay on Beet Armyworm (BAW), 128-well diet tray assay; details: Beet Armyworm, 128-well diet tray assay, read-out: BAW rating
Outline: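 Diet tray, 8 wells/compound; 50 μg/cm^2 applied to diet surface (90:10 acetone-water), dried. 1–5 L2 larvae/well; 25° C., 14:10 L:D, 5–7 d. Read-out: % mortality, mean of 8 wells.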

SMILES	YFM rating [1]	pest or weed control at 50 µg/cm2 [2]	pest or weed control at 50 µg/cm2 [3]
Nc1ccc(F)c(NC(=O)c2cc(NC(=O)[C@H]3[C@H](c4ccc(F)c(Cl)c4)C3(Cl)Cl)ccc2Cl)c1 [F430, N-(5-Amino-2-fluorophenyl)-2-chloro-5-((1R,3R)-2,2-dichloro-3-(3-chloro-4-fluorophenyl)cyclopropane-1-carboxamido)benzamide]	A (80-100)	50 to 100%	50 to 100%
Nc1cc(F)cc(NC(=O)c2cc(NC(=O)[C@H]3[C@H](c4ccc(Cl)c(Cl)c4)C3(Cl)Cl)ccc2Cl)c1 [F431, N-(3-Amino-5-fluorophenyl)-2-chloro-5-((1R,3R)-2,2-dichloro-3-(3,4-dichlorophenyl)cyclopropane-1-carboxamido)benzamide]	A (80-100)	50 to 100%	50 to 100%
Nc1cc(F)cc(NC(=O)c2cc(NC(=O)[C@H]3[C@H](c4cc(Cl)c(Cl)c(Cl)c4)C3(Cl)Cl)ccc2Cl)c1 [F432, N-(3-Amino-5-fluorophenyl)-2-chloro-5-((1R,3R)-2,2-dichloro-3-(3,4,5-trichlorophenyl)cyclopropane-1-carboxamido)benzamide]	A (80-100)	50 to 100%	50 to 100%
Nc1cc(F)cc(NC(=O)c2cc(NC(=O)[C@H]3[C@H](c4ccc(F)c(Cl)c4)C3(Cl)Cl)ccc2Cl)c1 [F433, N-(3-Amino-5-fluorophenyl)-2-chloro-5-((1R,3R)-2,2-dichloro-3-(3-chloro-4-fluorophenyl)cyclopropane-1-carboxamido)benzamide]	A (80-100)	50 to 100%	50 to 100%
O=C(Nc1ccc2[nH]ccc2c1)c1cc(NC(=O)C2C(c3cc(Cl)cc(Cl)c3)C2(Cl)Cl)ccc1Cl (stereo not drawn) [F435, 2-Chloro-5-(trans)-2,2-dichloro-3-(3,5-dichlorophenyl)cyclopropane-1-carboxamido)-N-(1H-indol-5-yl)benzamide]	A (80-100)	50 to 100%	50 to 100%
O=C(Nc1ccc2cccnc2c1)c1cc(NC(=O)C2C(c3cc(Cl)cc(Cl)c3)C2(Cl)Cl)ccc1Cl (stereo not drawn) [F436, 2-Chloro-5-(trans)-2,2-dichloro-3-(3,5-dichlorophenyl)cyclopropane-1-carboxamido)-N-(quinolin-7-yl)benzamide]	B (More than 0-Less than 80)	50 to 100%	50 to 100%
O=C(Nc1cnc2cc[nH]c2c1)c1cc(NC(=O)C2C(c3cc(Cl)cc(Cl)c3)C2(Cl)Cl)ccc1Cl (stereo not drawn) [F437, 2-Chloro-5-(trans)-2,2-dichloro-3-(3,5-dichlorophenyl)cyclopropane-1-carboxamido)-N-(1H-pyrrolo[3,2-b]pyridin-6-yl)benzamide]	B (More than 0-Less than 80)	50 to 100%	50 to 100%
O=C(Nc1nc2ccccc2s1)c1cc(NC(=O)C2C(c3cc(Cl)cc(Cl)c3)C2(Cl)Cl)ccc1Cl (stereo not drawn) [F441, N-(Benzo[d]thiazol-2-yl)-2-chloro-5-(trans)-2,2-dichloro-3-(3,5-dichlorophenyl)cyclopropane-1-carboxamido)benzamide]	B (More than 0-Less than 80)	50 to 100%	50 to 100%
O=C(Nc1nc2cc(F)ccc2s1)c1cc(NC(=O)C2C(c3cc(Cl)cc(Cl)c3)C2(Cl)Cl)ccc1Cl (stereo not drawn) [F442, 2-Chloro-5-(trans)-2,2-dichloro-3-(3,5-dichlorophenyl)cyclopropane-1-carboxamido)-N-(5-fluorobenzo[d]thiazol-2-yl)benzamide]	B (More than 0-Less than 80)	50 to 100%	50 to 100%
O=C(Nc1nc2c(Cl)cccc2s1)c1cc(NC(=O)C2C(c3cc(Cl)cc(Cl)c3)C2(Cl)Cl)ccc1Cl (stereo not drawn) [F443, 2-Chloro-N-(4-chlorobenzo[d]thiazol-2-yl)-5-(trans)-2,2-dichloro-3-(3,5-dichlorophenyl)cyclopropane-1-carboxamido)benzamide]	B (More than 0-Less than 80)	50 to 100%	50 to 100%
O=C(Nc1nc2ccc(F)cc2s1)c1cc(NC(=O)C2C(c3cc(Cl)cc(Cl)c3)C2(Cl)Cl)ccc1Cl (stereo not drawn) [F445, 2-Chloro-5-(trans)-2,2-dichloro-3-(3,5-dichlorophenyl)cyclopropane-1-carboxamido)-N-(6-fluorobenzo[d]thiazol-2-yl)benzamide]	B (More than 0-Less than 80)	50 to 100%	50 to 100%
O=C(Nc1nc2ccccc2o1)c1cc(NC(=O)C2C(c3cc(Cl)cc(Cl)c3)C2(Cl)Cl)ccc1Cl (stereo not drawn) [F447, N-(Benzo[d]oxazol-2-yl)-2-chloro-5-(trans)-2,2-dichloro-3-(3,5-dichlorophenyl)cyclopropane-1-carboxamido)benzamide]	A (80-100)	50 to 100%	50 to 100%
Cn1nc(NC(=O)c2cc(NC(=O)C3C(c4cc(Cl)cc(Cl)c4)C3(Cl)Cl)ccc2Cl)c2c(F)cccc21 (stereo not drawn) [F449, 2-Chloro-5-(trans)-2,2-dichloro-3-(3,5-dichlorophenyl)cyclopropane-1-carboxamido)-N-(4-fluoro-1-methyl-1H-indazol-3-yl)benzamide]	A (80-100)	50 to 100%	50 to 100%
O=C(Nc1ccc2ncoc2c1)c1cc(NC(=O)C2C(c3cc(Cl)cc(Cl)c3)C2(Cl)Cl)ccc1Cl (stereo not drawn) [F450, N-(Benzo[d]oxazol-6-yl)-2-chloro-5-(trans)-2,2-dichloro-3-(3,5-dichlorophenyl)cyclopropane-1-carboxamido)benzamide]	A (80-100)	50 to 100%	50 to 100%
O=C(Nc1cc2ocnc2cc1F)c1cc(NC(=O)C2C(c3cc(Cl)cc(Cl)c3)C2(Cl)Cl)ccc1Cl (stereo not drawn) [F453, 2-Chloro-5-(trans)-2,2-dichloro-3-(3,5-dichlorophenyl)cyclopropane-1-carboxamido)-N-(5-fluorobenzo[d]oxazol-6-yl)benzamide]	A (80-100)	50 to 100%	50 to 100%
Cc1cc2cc(NC(=O)c3cc(NC(=O)C4C(c5cc(Cl)cc(Cl)c5)C4(Cl)Cl)ccc3Cl)ccc2[nH]1 (stereo not drawn) [F454, 2-Chloro-5-(trans)-2,2-dichloro-3-(3,5-dichlorophenyl)cyclopropane-1-carboxamido)-N-(2-methyl-1H-indol-5-yl)benzamide]	A (80-100)	50 to 100%	50 to 100%
Cc1nc2cc(NC(=O)c3cc(NC(=O)C4C(c5cc(Cl)cc(Cl)c5)C4(Cl)Cl)ccc3Cl)ccc2s1 (stereo not drawn) [F455, 2-Chloro-5-(trans)-2,2-dichloro-3-(3,5-dichlorophenyl)cyclopropane-1-carboxamido)-N-(2-methylbenzo[d]thiazol-5-yl)benzamide]	A (80-100)	50 to 100%	50 to 100%
O=C(Nc1ccc2[nH]cnc2c1)c1cc(NC(=O)C2C(c3cc(Cl)cc(Cl)c3)C2(Cl)Cl)ccc1Cl (stereo not drawn) [F456, N-(1H-Benzo[d]imidazol-5-yl)-2-chloro-5-(trans)-2,2-dichloro-3-(3,5-dichlorophenyl)cyclopropane-1-carboxamido)benzamide]	B (More than 0-Less than 80)	50 to 100%	50 to 100%
Cn1ccc2cc(NC(=O)c3cc(NC(=O)C4C(c5cc(Cl)cc(Cl)c5)C4(Cl)Cl)ccc3Cl)ccc21 (stereo not drawn) [F457, 2-Chloro-5-(trans)-2,2-dichloro-3-(3,5-dichlorophenyl)cyclopropane-1-carboxamido)-N-(1-methyl-1H-indol-5-yl)benzamide]	A (80-100)	50 to 100%	50 to 100%
O=C(Nc1ccc2nccn2c1)c1cc(NC(=O)C2C(c3cc(Cl)cc(Cl)c3)C2(Cl)Cl)ccc1Cl (stereo not drawn) [F475, 2-Chloro-5-(trans)-2,2-dichloro-3-(3,5-dichlorophenyl)cyclopropane-1-carboxamido)-N-(imidazo[1,2-a]pyridin-6-yl)benzamide]	A (80-100)	50 to 100%	50 to 100%
C/S(=N\C#N)c1ccc(NC(=O)c2cc(NC(=O)C3C(c4cc(Cl)cc(Cl)c4)C3(Cl)Cl)ccc2Cl)cc1 (stereo not drawn) [F495, trans-2-chloro-N-(4-(N-cyano-S-methylsulfinimidoyl)phenyl)-5-(2,2-dichloro-3-(3,5-dichlorophenyl)cyclopropane-1-carboxamido)benzamide]	A (80-100)	50 to 100%	50 to 100%
CN1Cc2ccc(NC(=O)c3cc(NC(=O)C4C(c5cc(Cl)cc(Cl)c5)C4(Cl)Cl)ccc3Cl)cc2C1 (stereo not drawn) [F498, 2-Chloro-5-(trans)-2,2-dichloro-3-(3,5-dichlorophenyl)cyclopropane-1-carboxamido)-N-(2-methylisoindolin-5-yl)benzamide]	A (80-100)	50 to 100%	50 to 100%
CS(=O)(=NC#N)c1ccc(NC(=O)c2cc(NC(=O)C3C(c4cc(Cl)cc(Cl)c4)C3(Cl)Cl)ccc2Cl)cc1 (stereo not drawn) [F502, trans-2-chloro-N-(4-(N-cyano-S-methylsulfonimidoyl)phenyl)-5-(2,2-dichloro-3-(3,5-dichlorophenyl)cyclopropane-1-carboxamido)benzamide]	A (80-100)	50 to 100%	50 to 100%
